In US20250353855A1, “HETEROCYCLIC AND HETEROARYL COMPOUNDS FOR TREATING HUNTINGTON'S DISEASE” (PTC THERAPEUTICS, INC., priority 2022, published 2025):
Like-named read-outs stand apart in the source and are kept apart here.

Test system: Endogenous Huntingtin Protein
Assay: Endogenous Huntingtin Protein Assay (ELISA-based MSD electrochemiluminescence)
Format: cell-based
Details: MSD plates coated with MW1 (expanded polyglutamine) or MAB2166 capture antibody, lysates
Description: Compounds of Formula (T) were tested using the Meso Scale Discovery (MSD) Assay provided in International Application No. PCT/US2016/066042, filed on Dec. 11, 2016 and claiming priority to U.S. Provisional Application 62/265,652 filed on Dec. 10, 2015, the entire contents of which are incorporated herein by reference.
The Endogenous Huntingtin Protein assay used in Example 1 was developed using the ELISA-based MSD electrochemiluminescence assay platform.
Meso Scale Discovery (MSD) 96-well or 384-well plates were coated overnight at 4° C. with MW1 (expanded polyglutamine) or MAB2166 monoclonal antibody (for capture) at a concentration of 1 μg/mL in PBS (30 μL per well). Plates were then washed three times with 300 μL wash buffer (0.05% Tween-20 in PBS) and blocked (100 μL blocking buffer; 5% BSA in PBS) for 4-5 hours at room temperature with rotational shaking and then washed three times with wash buffer.
Samples (25 μL) were transferred to the antibody-coated MSD plate and incubated overnight at 4° C. After removal of the lysates, the plate was washed three times with wash buffer, and 25 μL of #5656S (Cell signaling; rabbit monoclonal) secondary antibody (diluted to 0.25 μg/mL in 0.05% Tween-20 in blocking buffer) was added to each well and incubated with shaking for 1 Hour at room temperature. Following incubation with the secondary antibody, the wells were rinsed with wash buffer after which 25 μL of goat anti-rabbit SULFO TAG secondary detection antibody (required aspect of the MSD system) (diluted to 0.25 μg/mL in 0.05% Tween-20 in blocking buffer) was added to each well and incubated with shaking for 1 hour at room temperature. After rinsing three times with wash buffer, 150 μL of read buffer T with surfactant (MSD) were added to each empty well, and the plate was imaged on a SI 6000 imager (MSD) according to manufacturers' instructions provided for 96- or 384-well plates.

Row | Compound | IC50 (read-out: IC50) [nM] | IC50 [nM]
1 | Cc1nc2cc(O)c(-c3cc4ncn([C@H]5C[C@@H]6CC[C@@H](N6)[C@H]5F)c4nn3)cc2s1 (single isomer, unassigned) [Cpd 9, 6-{7-[(1R,2R,3S,5S)-2-fluoro-8-azabicyclo[3.2.1]octan-3-yl]-7H-imidazo[4,5-c]pyridazin-3-yl}-2-methyl-1,3-benzothiazol-5-ol or 6-{7-[(1S,2S,3R,5R)-2-fluoro-8-azabicyclo[3.2.1]octan-3-yl]-7H-imidazo[4,5-c]pyridazin-3-yl}-2-methyl-1,3-benzothiazol-5-ol] | < 100 | 
2 | Cc1cc(=O)c2cc(O)c(-c3cc4c(nn3)N([C@H]3CC(C)(C)NC(C)(C)[C@H]3F)CC4)cc2o1 [Cpd 83, 7-{7-[(3S,4S)-3-fluoro-2,2,6,6-tetramethylpiperidin-4-yl]-6,7-dihydro-5H-pyrrolo[2,3-c]pyridazin-3-yl}-6-hydroxy-2-methyl-4H-1-benzopyran-4-one] | < 100 | 
3 | Cc1ncc2cc(-c3cc4ccn([C@H]5CC(C)(C)NC(C)(C)[C@H]5F)c4nn3)c(O)cc2n1 [Cpd 15, 6-{7-[(3S,4S)-3-fluoro-2,2,6,6-tetramethylpiperidin-4-yl]-7H-pyrrolo[2,3-c]pyridazin-3-yl}-2-methylquinazolin-7-ol] |  | < 100
4 | CC1(C)C[C@H](N2CCc3cc(-c4cc5cnccc5cc4O)nnc32)[C@H](F)C(C)(C)N1 [Cpd 54, 7-{7-[(3S,4S)-3-fluoro-2,2,6,6-tetramethylpiperidin-4-yl]-6,7-dihydro-5H-pyrrolo[2,3-c]pyridazin-3-yl}isoquinolin-6-ol] | < 100 | 
5 | CC1(C)C[C@H](n2ccc3cc(-c4cc5cccnc5cc4O)nnc32)[C@H](F)C(C)(C)N1 [Cpd 16, 6-{7-[(3S,4S)-3-fluoro-2,2,6,6-tetramethylpiperidin-4-yl]-7H-pyrrolo[2,3-c]pyridazin-3-yl}quinolin-7-ol] | < 100 | 

Continued, in another order:

Row | IC50 (read-out: IC50) [nM] | Compound | IC50 [nM]
6 | < 100 | Cc1nc2cc(O)c(-c3cc4c(nn3)N([C@@H]3CC5(CCC5)NC[C@@H]3F)CC4)cc2s1 (single isomer, unassigned) [Cpd 61, 6-{7-[(7S,8R)-7-fluoro-5-azaspiro[3.5]nonan-8-yl]-6,7-dihydro-5H-pyrrolo[2,3-c]pyridazin-3-yl}-2-methyl-1,3-benzothiazol-5-ol or 6-{7-[(7R,8S)-7-fluoro-5-azaspiro[3.5]nonan-8-yl]-6,7-dihydro-5H-pyrrolo[2,3-c]pyridazin-3-yl}-2-methyl-1,3-benzothiazol-5-ol] | 
7 | < 100 | CSc1nc2cc(O)c(-c3cc4ccn([C@H]5CC(C)(C)NC(C)(C)[C@H]5F)c4nn3)cc2s1 [Cpd 99, 6-{7-[(3S,4S)-3-fluoro-2,2,6,6-tetramethylpiperidin-4-yl]-7H-pyrrolo[2,3-c]pyridazin-3-yl}-2-(methylsulfanyl)-1,3-benzothiazol-5-ol] | 
8 | < 100 | Cn1nnc2cc(-c3cc4c(nn3)N([C@H]3CC(C)(C)NC(C)(C)[C@H]3F)CC4)c(O)cc21 [Cpd 50, 5-{7-[(3S,4S)-3-fluoro-2,2,6,6-tetramethylpiperidin-4-yl]-6,7-dihydro-5H-pyrrolo[2,3-c]pyridazin-3-yl}-1-methyl-1H-benzotriazol-6-ol] | 
9 | < 100 | COc1nc2cc(O)c(-c3cc4c(nn3)N([C@H]3CC(C)(C)NC(C)(C)[C@H]3F)CC4)cc2s1 [Cpd 97, 6-{7-[(3S,4S)-3-fluoro-2,2,6,6-tetramethylpiperidin-4-yl]-6,7-dihydro-5H-pyrrolo[2,3-c]pyridazin-3-yl}-2-methoxy-1,3-benzothiazol-5-ol] | 
10 | < 100 | Cc1cc(=O)oc2cc(O)c(-c3cc4c(nn3)N([C@H]3CCNC5(CC5)C3)CC4)cc12 [Cpd 66, 6-{7-[(7S)-4-azaspiro[2.5]octan-7-yl]-6,7-dihydro-5H-pyrrolo[2,3-c]pyridazin-3-yl}-7-hydroxy-4-methyl-2H-1-benzopyran-2-one] | 
11 | < 100 | CC1(C)C[C@H](n2ccc3cc(-c4cc5cc(F)cnc5cc4O)nnc32)[C@H](F)C(C)(C)N1 [Cpd 94, 3-fluoro-6-{7-[(3S,4S)-3-fluoro-2,2,6,6-tetramethylpiperidin-4-yl]-7H-pyrrolo[2,3-c]pyridazin-3-yl}quinolin-7-ol] | 
